Measurements from article PMC7504435, “Combined Protein- and Ligand-Observed NMR Workflow to Screen Fragment Cocktails against Multiple Proteins: A Case Study Using Bromodomains” (Molecules, 2020).
pKd: −log10 of the molar value. Where two headings read alike, the source gives them in different places.

How the values were obtained:
[1] = target: T1, PfGCN5 bromodomain (Plasmodium falciparum, UniProt Q8IB67); assay: biochemical; assay type: binding; conditions: for pKd: PrOF NMR titration, for 9 average of W1454 and W1379, NS = non-saturating, read-out: PfGCN5 Kd; for Initial Mixture PfGCN5 PrOF NMR Δδ: hit mixture containing the fragment, 400 µM each fragment
T1 sequence (Q8IB67 entry or part of it): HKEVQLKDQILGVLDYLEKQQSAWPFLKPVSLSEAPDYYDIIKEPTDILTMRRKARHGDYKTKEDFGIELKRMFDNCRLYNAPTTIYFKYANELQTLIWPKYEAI
Procedure: (§1) The screening workflow consists of two dependent steps: 1) a PrOF NMR screen of the 5FW-labeled proteins and a cocktail of 4–5 fragments in a single NMR tube; 2) a ^1H CPMG NMR binding assay to deconvolute the hit mixtures for each protein (Figure 1). In the first step, a dual-protein PrOF NMR spectrum was obtained in which 5FW-PfGCN5, 5FW-BPTF (~ 50 µM each) and mixtures of fragments (400 µM individual fragment) were present in the same NMR tube. […] Chemical shift perturbations indicating a ligand binding event were based on a prior cutoff of Δδ ≥ 0.030 ppm as the definition for a hit mixture. This cutoff was based on a statistical analysis of chemical shift perturbations from a prior BRD4 D1 fragment screen and are described further in the experimental section and in Table S2.
(§2) PrOF NMR. PrOF NMR spectra were obtained on a Bruker Avance III HD 500 with the 5 mm Prodigy TCI inverse cryoprobe (^19F S:N 2000:1). […] The DMSO concentration for all experiments was kept constant at 1%. […] For the PrOF NMR screen, 5FW-BPTF and 5FW-PfGCN5 (35–40 µM in 50 mM phosphate, 100 mM NaCl, pH 7.4) were tested with mixtures of 4–5 fragments, where each individual fragment was 400 µM. […] A 10 Hz line broadening was applied. Titrations were fit to Equation (2), where p is the protein concentration and L is the ligand concentration. (2) Δδ=Δδmax × (Kd+P+L ) − (((Kd + P + L )^2) − 4PL)/2P
(§3) A PrOF NMR binding event is characterized as a change in chemical shift (Δδ) from the protein-only spectrum to the protein + fragment mixture spectrum. We used a prior cutoff of Δδ ≥ 0.030 ppm as the definition of a hit mixture, based on a statistical analysis of chemical shift perturbations from a prior BRD4 D1 fragment screen.

[2] = target: T1, PfGCN5 bromodomain; assay: 1H CPMG NMR deconvolution of hit mixtures, PfGCN5; assay type: binding; conditions: 10 µM protein, 100 µM ligand; for 1H CPMG NMR % Drop in Resonance Intensity PfGCN5: for 9 from competition experiments (footnote a)
Procedure: (§4) The second step is a ^1H CPMG NMR deconvolution of the hit mixtures using the non-fluorine-labeled bromodomains. ^1H CPMG NMR employs a T2 filter to take advantage of the difference in transverse relaxation time between protein and small molecules to filter out the bound-state ligand(s). Unlike the PrOF NMR assay, a single protein is assayed in each experiment. A binding event is characterized by a decrease in ligand resonance intensity from the ligand alone spectrum to the ligand + protein spectrum. A hit is defined as a decrease in resonance intensity ≥ 20%. The ^1H CPMG NMR assay can be tuned by changing the protein or ligand concentration, filter length (Figure 1), or hit criteria depending on how stringent the desired hit rate is. The number of ^1H CPMG NMR deconvolution experiments is directly informed from the first step. If a mixture from the first step was only a hit for one protein, a single ^1H CPMG NMR deconvolution experiment is needed. If a mixture from the first step was a hit for both proteins, two separate ^1H CPMG NMR deconvolutions experiments are needed to determine the fragments that bind to each protein.
(§5) ^1H CPMG NMR. ^1H CPMG NMR screen data were acquired on Bruker Avance III HD 500 with the 5 mm Prodigy TCI cryoprobe inverse cryoprobe (^1H 2500:1 S/N). Competition ^1H CPMG NMR data were acquired on Bruker 700 MHz Avance with a CryoProbe 5 mm TXI (^1H S:N with H2O suppression (2mM sucrose) - 900:1) and excitation sculpting water suppression. Proteins were present at 10 µM in 50 mM phosphate, 100 mM NaCl, pH 7.4 in 100% D2O. In separate NMR tubes, a ^1H CPMG NMR pulse was applied to a 1) mixture of ligands (individual ligands present at 100 µM for the screen and 50 µM for competition experiments) and 2) ligands + protein. […] For the competition experiments, τ was increased to 4.0 ms.

[3] = target: BRD4 D1; conditions: cited from earlier work; for pKd: data from previous screen
[4] = target: T2, BPTF bromodomain (Homo sapiens, UniProt Q12830); assay: PrOF NMR (dual-protein screen of mixtures, titrations) with 5FW-BPTF; assay type: binding; parameters: against the bromodomains of BPTF and Plasmodium falciparum GCN5 (PfGCN5); his6; made in house; conditions: for Initial Mixture BPTF PrOF NMR Δδ: hit mixture containing the fragment, 400 µM each fragment
Procedure: as §1, §2, §3

[5] = target: T2, BPTF bromodomain; assay: 1H CPMG NMR deconvolution of hit mixtures, BPTF; assay type: binding; parameters: deconvolution of the hit mixtures using the non-fluorine-labeled bromodomains; made in house; host or cells: E. coli BL21(DE3); conditions: 10 µM protein, 100 µM ligand; for 1H CPMG NMR % Drop in Resonance Intensity BPTF: for 9 from competition experiments (footnote a)
Procedure: as §4, §5

[6] = target: T2, BPTF bromodomain; conditions: cited from earlier work
[7] = target: T1, PfGCN5 bromodomain; assay: Competition 1H CPMG NMR with PfGCN5; assay type: binding; conditions: competitor at or above the protein concentration
Source text: The competition ^1H CPMG NMR and PrOF NMR assays were employed to further probe the binding mode of 9 to PfGCN5. […] At high concentrations, at or above the protein concentration, the competition maxed out at ~ 50% (Figure 2, Figure S10, Table S5). Conversely, TP-238 was able to compete 9 off from BPTF at low concentrations.
^1H CPMG NMR. ^1H CPMG NMR screen data were acquired on Bruker Avance III HD 500 with the 5 mm Prodigy TCI cryoprobe inverse cryoprobe (^1H 2500:1 S/N). Competition ^1H CPMG NMR data were acquired on Bruker 700 MHz Avance with a CryoProbe 5 mm TXI (^1H S:N with H2O suppression (2mM sucrose) - 900:1) and excitation sculpting water suppression. Proteins were present at 10 µM in 50 mM phosphate, 100 mM NaCl, pH 7.4 in 100% D2O. In separate NMR tubes, a ^1H CPMG NMR pulse was applied to a 1) mixture of ligands (individual ligands present at 100 µM for the screen and 50 µM for competition experiments) and 2) ligands + protein. For competition experiments, the ligands were used individually, and the competitor ligands were spiked into tube 2. ^1H CPMG NMR parameters for the screen: NS = 128, acquisition time = 2 s, τ = 2.5 ms, and L = 120. For the competition experiments, τ was increased to 4.0 ms.

[8] = target: T1, PfGCN5 bromodomain; assay: 1H-15N HSQC NMR titration with PfGCN5; assay type: binding; conditions: 1H-15N HSQC titration (Figure S14); read-out: Kd PfGCN5
Source text: To cross-validate our findings, ^1H-^15N HSQC NMR was used to further examine the binding mode of 9 to PfGCN5 in the presence and absence of known ligands. The ^1H-^15N HSQC spectrum of PfGCN5 is unassigned. For ease of spectral interpretation, all resonances that were distinctly visible were assigned as 1-64. Fragment 9, GSK4027, and the acetylated peptide H2A.Z II K7,13ac were titrated against PfGCN5. At the highest ligand concentration, resonances with Δδ > x^− + 0.60*s, where x^− is the mean and s is the standard deviation at the highest concentration, were defined as significant. The correction factor of 0.60 is to compensate for only 60% of the resonances being usable for analysis. Titration of 9 with PfGCN5 gave linear and non-linear dose-dependent chemical shift perturbations. Of the five resonances with non-linear movement, only one (10) was considered to have significant movement. […] This affinity with the non-fluorine-labeled protein is similar but higher than the affinity determined by PrOF NMR. […]
^1H-^15N SOFAST HSQC.^1H-^15N SOFAST HSQC spectra were obtained on a Bruker 600 MHz Avance NEO with a CryoProbe 5 mm TCI (^1H, ^13C, ^15N, ^2H) w/ Z-gradient using Bruker’s IBS_SOFAST.x method with 32 scans, 0.05 s acquisition time, and 0.2 s delay. […] Data were processed with nmrDraw, nmrPipe, and NFRAM Sparky. Δδ^1H-^15N was calculated using Equation (3). […]

[9] = PrOF NMR titration, NS = non-saturating, NB = no binding

Compound	pKd [1]	Initial Mixture PfGCN5 PrOF NMR Δδ [1]	PfGCN5 CPMG % decrease [2] [%]	1H CPMG NMR % Drop in Resonance Intensity PfGCN5 [2]	pKd [3]	Initial Mixture BPTF PrOF NMR Δδ [4]	BPTF CPMG % decrease [5] [%]	1H CPMG NMR % Drop in Resonance Intensity BPTF [5]	also measured
CS(=O)(=O)N1CCC2(CC1)OC(=O)c1ccccc12 [Fragment 7]	3.82	+++ (+++ = 0.1 < Δδ < 0.199)	100	+++++ (+++++ = 100%)	< 3.40	+++ (+++ = 0.1 < Δδ < 0.199)	49	++ (++ = 40–59.9%)	pKd ([4]; PrOF NMR titration): < 3.00
N#Cc1cccc(C(=O)NC2CCC3OCCOC3C2)c1 (centres unmarked) [Fragment 1]	< 3.00	++ (++ = 0.050 < Δδ < 0.099)	100	+++++ (+++++ = 100%)	< 3.40	- (For PrOF NMR = Δδ < 0.029 ppm)	–	–	–
H2A.Z II K7,13ac peptide N-terminal tail (from UniProt Q71UI9)	–	–	–	–	–	–	–	–	pKd [6]: 3.51
CN1C[C@H](Nc2cnn(C)c(=O)c2Br)C[C@H](c2ccccc2)C1 [GSK4027, reference compound]	–	–	–	–	–	–	–	–	PrOF NMR titration with 5FW-PfGCN5, result in words [1]: binds PfGCN5 strongly; competition maximum in 1H CPMG NMR competition with 9 [7]: ~ 50%
Cc1nnc2c3ccccc3c(N[C@@H](C)[C@H](c3ccccc3)N(C)C)nn12 [L-Moses, reference compound]	–	–	–	–	–	–	–	–	competition maximum in 1H CPMG NMR competition with 9 [7]: ~ 50%
COC(=O)N1CCC(CNC(=O)c2ccco2)CC1 [Fragment 2]	3.44	+++ (+++ = 0.1 < Δδ < 0.199)	100	+++++ (+++++ = 100%)	3.35	++ (++ = 0.050 < Δδ < 0.099)	–	–	–
Cc1cccc(NC(=O)C2CCN(S(C)(=O)=O)CC2)c1 [Fragment 6]	–	- (For PrOF NMR = Δδ < 0.029 ppm)	–	–	< 3.40	+ (+ = 0.030 < Δδ < 0.049)	25	+ (+ = 20–39.9%)	selectivity, binds PfGCN5 over BPTF ([1]; ratio of Kd values): > 6 fold; Bind BRD4? ([3]; Y/N, previous screen): not bind; pKd [4, 9]: 3.27
CCC(=O)NCc1nccc(N(C)C)n1 [Fragment 3]	< 3.00	++++ (++++ = Δδ > 0.2)	82	++++ (++++ = 80–99.9%)	< 3.40	- (For PrOF NMR = Δδ < 0.029 ppm)	–	–	–
Cc1ccc2c(C#N)c(N)sc2c1 [Fragment 4]	–	- (For PrOF NMR = Δδ < 0.029 ppm)	–	–	< 3.40	+ (+ = 0.030 < Δδ < 0.049)	100	+++++ (+++++ = 100%)	BPTF Kd [4, 9]: no binding; pKd [4, 9]: < 3.00
CC(C)CNc1ncc([N+](=O)[O-])c(N)n1 [Fragment 5]	–	- (For PrOF NMR = Δδ < 0.029 ppm)	–	–	< 3.40	++ (++ = 0.050 < Δδ < 0.099)	65	+++ (+++60–80%)	pKd [4, 9]: < 3.00
H2A.Z II K7,13ac: acetylated N-terminal tail peptide of a histone protein (AGGKAGKDSGKAKAK; acetyl-Lys7 and acetyl-Lys13 in mature numbering (UniProt K8 and K14); C-terminal amide expected from NovaSyn TGR resin) [reference compound]	–	–	–	–	–	–	–	–	pKd [8]: 3.17
